What follows are compounds tested against ATX (human His-tagged) (Homo sapiens (Human), UniProt Q13822) (assay: Human ATX enzyme inhibition assay (fluorescence quenching, MR121 substrate)). Conditions: 30 nM ATX, 1 μM MR121 substrate, 30° C., pH 8.0.
Assay type: biochemical
Outline: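 Fluorescence quenching assay with MR121/tryptophan-labelled substrate analogue in Tris-HCl buffer (140 mM NaCl, CaCl2, MgCl2, 0.01% Triton X-100, pH 8.0). Serially diluted compounds were preincubated 15 min at 30 °C with 30 nM ATX (final), then 1 µM substrate (final) added and incubated 15 min at 30 °C.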

| Structure (SMILES) | IC50 [nM] |
| --- | --- |
| CCOc1cc(C(=O)N2C[C@@H]3[C@H]4CN(C(=O)c5ccc6[nH]nnc6c5)C[C@H]4[C@@H]3C2)nc2ccc(C(F)(F)F)cc12 [Example 1.080, (1H-benzotriazol-5-yl)-[(3aS,3bR,6aS,6bR)-5-(4-ethoxy-6-trifluoromethyl-quinoline-2-carbonyl)-octahydro-cyclobuta[1,2-c;3,4-c′]dipyrrol-2-yl]-methanone] | 2.5 |
| COCCOc1cc(C(=O)N2C[C@@H]3[C@H](C2)[C@H]2CN(C(=O)c4ccc5[nH]nnc5c4)C[C@@H]32)cc2ccccc12 [Example 1.049, [(3aS,3bS,6aR,6bR)-5-(1H-benzotriazole-5-carbonyl)-octahydro-cyclobuta[1,2-c;3,4-c′]dipyrrol-2-yl]-[4-(2-methoxy-ethoxy)-naphthalen-2-yl]-methanone] | 4 |
| O=C(c1cc2ccc(OC(F)(F)F)cc2[nH]1)N1C[C@@H]2[C@H](C1)[C@H]1CN(C(=O)[C@@H]3CCc4[nH]nnc4C3)C[C@@H]21 [Example 1.020, [(3aR,3bS,6aR,6bS)-5-((R)-4,5,6,7-tetrahydro-1H-benzotriazole-5-carbonyl)-octahydro-cyclobuta[1,2-c;3,4-c′]dipyrrol-2-yl]-(6-trifluoromethoxy-1H-indol-2-yl)-methanone] | 6 |
| CC(C)Oc1cc(C(=O)N2C[C@@H]3[C@H]4CN(C(=O)c5ccc6[nH]nnc6c5)C[C@H]4[C@@H]3C2)cc2[nH]ccc12 [Example 1.061, [(3aS,3bS,6aR,6bR)-5-(1H-benzotriazole-5-carbonyl)-octahydro-cyclobuta[1,2-c;3,4-c′]dipyrrol-2-yl]-(4-isopropoxy-1H-indol-6-yl)-methanone] | 40.5 |
| O=C(c1ccc2[nH]nnc2c1)N1C[C@@H]2[C@H](C1)[C@H]1CN(C(=O)c3cc4ccccc4c(OCC4CC4)n3)C[C@@H]21 [Example 1.058, [(3aR,3bS,6aR,6bS)-5-(1H-benzotriazole-5-carbonyl)-octahydro-cyclobuta[1,2-c;3,4-c′]dipyrrol-2-yl]-(1-cyclopropylmethoxy-isoquinolin-3-yl)-methanone] | 5.3 |
| O=C(c1ccc2[nH]nnc2c1)N1C[C@@H]2[C@H](C1)[C@H]1CN(C(=O)c3cc(-c4ccc(Cl)cc4)c(OCC(F)(F)F)cn3)C[C@@H]21 [Example 1.107, (1H-benzotriazol-5-yl)-{(3aS,3bR,6aS,6bR)-5-[4-(4-chloro-phenyl)-5-(2,2,2-trifluoro-ethoxy)-pyridine-2-carbonyl]-octahydro-cyclobuta[1,2-c;3,4-c′]dipyrrol-2-yl}-methanone] | 141 |
| CC(C)Oc1cc(C(=O)N2C[C@@H]3[C@H](C2)[C@H]2CN(C(=O)[C@@H]4CCc5[nH]nnc5C4)C[C@@H]32)cc2ccccc12 [Example 1.059, (4-isopropoxy-naphthalen-2-yl)-[(3aR,3bS,6aR,6bS)-5-((R)-4,5,6,7-tetrahydro-1H-benzotriazole-5-carbonyl)-octahydro-cyclobuta[1,2-c;3,4-c′]dipyrrol-2-yl]-methanone] | 1.3 |
| CCn1ccc2c(OC(C)C)cc(C(=O)N3C[C@@H]4[C@H]5CN(C(=O)c6ccc7[nH]nnc7c6)C[C@H]5[C@@H]4C3)cc21 [Example 1.074, [(3aS,3bS,6aR,6bR)-5-(1H-benzotriazole-5-carbonyl)-octahydro-cyclobuta[1,2-c;3,4-c′]dipyrrol-2-yl]-(1-ethyl-4-isopropoxy-1H-indol-6-yl)-methanone] | 5 |
| O=C(COc1ccc(OC(F)(F)F)cc1)N1C[C@@H]2[C@H](C1)[C@H]1CN(C(=O)c3ccc4[nH]nnc4c3)C[C@@H]21 [Example 1.008, 1-[(3aR,3bS,6aR,6bS)-5-(1H-benzotriazole-5-carbonyl)-octahydro-cyclobuta[1,2-c;3,4-c′]dipyrrol-2-yl]-2-(4-trifluoromethoxy-phenoxy)-ethanone] | 36 |
| Cn1c(C(=O)N2C[C@@H]3[C@H]4CN(C(=O)c5ccc6[nH]nnc6c5)C[C@H]4[C@@H]3C2)cc2cc(OC(F)(F)F)ccc21 [Example 1.032, [(3aR,3bS,6aR,6bS)-5-(1H-benzotriazole-5-carbonyl)-octahydro-cyclobuta[1,2-c;3,4-c′]dipyrrol-2-yl]-(1-methyl-5-trifluoromethoxy-1H-indol-2-yl)-methanone] | 13 |
| O=C(c1ccc2[nH]nnc2c1)N1C[C@@H]2[C@H](C1)[C@H]1CN(C(=O)c3cc4ccccc4cn3)C[C@@H]21 [Example 1.039, [(3aR,3bS,6aR,6bS)-5-(1H-benzotriazole-5-carbonyl)-octahydro-cyclobuta[1,2-c;3,4-c′]dipyrrol-2-yl]-isoquinolin-3-yl-methanone] | 3330 |
| O=C(c1ccc2[nH]nnc2c1)N1CC2C(C1)C1CN(C(=O)c3cc(OCC(F)(F)F)c(C4CC4)nn3)CC21 (stereo not shown) [Example 1.095] | 32 |
| O=C(/C=C/c1ccc(OC(F)(F)F)cc1)N1C[C@@H]2[C@H](C1)[C@H]1CN(C(=O)c3ccc4[nH]nnc4c3)C[C@@H]21 [Example 1.003, (E)-1-[(3aS,3bR,6aS,6bR)-5-(1H-benzotriazole-5-carbonyl)-octahydro-cyclobuta[1,2-c;3,4-c′]dipyrrol-2-yl]-3-(4-trifluoromethoxy-phenyl)-propenone] | 8.5 |
| COc1cc(C(=O)N2C[C@@H]3[C@H](C2)[C@H]2CN(C(=O)c4ccc5[nH]nnc5c4)C[C@@H]32)cc2ccccc12 [Example 1.026, [(3aS,3bS,6aR,6bR)-5-(1H-benzotriazole-5-carbonyl)-octahydro-cyclobuta[1,2-c;3,4-c′]dipyrrol-2-yl]-(4-methoxy-naphthalen-2-yl)-methanone] | 11.5 |
| O=C(c1ccc2cc(Cl)ccc2c1)N1C[C@@H]2[C@H](C1)[C@H]1CN(C(=O)c3ccc4[nH]nnc4c3)C[C@@H]21 [Example 1, [(3aS,3bS,6aR,6bR)-5-(1H-Benzotriazole-5-carbonyl)-octahydro-cyclobuta[1,2-c;3,4-c′]dipyrrol-2-yl]-(6-chloro-naphthalen-2-yl)-methanone] | 34 |
| COCCOc1cc(C(=O)N2C[C@@H]3[C@H]4CN(C(=O)c5ccc6[nH]nnc6c5)C[C@H]4[C@@H]3C2)nc2cc(C(F)(F)F)ccc12 [Example 1.079, (1H-benzotriazol-5-yl)-{(3aS,3bR,6aS,6bR)-5-[4-(2-methoxy-ethoxy)-7-trifluoromethyl-quinoline-2-carbonyl]-octahydro-cyclobuta[1,2-c;3,4-c′]dipyrrol-2-yl}-methanone] | 31.5 |
| O=C(c1cccc(-c2ccc(Cl)cc2)c1)N1C[C@@H]2[C@H](C1)[C@H]1CN(C(=O)c3ccc4[nH]nnc4c3)C[C@@H]21 [Example 1.089, (1H-benzotriazol-5-yl)-[(3aS,3bS,6aR,6bR)-5-(4′-chloro-biphenyl-3-carbonyl)-octahydro-cyclobuta[1,2-c;3,4-c′]dipyrrol-2-yl]-methanone] | 20 |
| O=C(c1ccc2[nH]ccc2c1)N1C[C@@H]2[C@H](C1)[C@H]1CN(C(=O)c3ccc4[nH]nnc4c3)C[C@@H]21 [Example 1.043, [(3aS,3bS,6aR,6bR)-5-(1H-benzotriazole-5-carbonyl)-octahydro-cyclobuta[1,2-c;3,4-c′]dipyrrol-2-yl]-(1H-indol-5-yl)-methanone] | 1410 |
| N#Cc1ccc2[nH]c(C(=O)N3C[C@@H]4[C@H]5CN(C(=O)c6ccc7[nH]nnc7c6)C[C@H]5[C@@H]4C3)cc2c1 [Example 1.027, 2-[(3aR,3bS,6aR,6bS)-5-(1H-benzotriazole-5-carbonyl)-octahydro-cyclobuta[1,2-c;3,4-c′]dipyrrole-2-carbonyl]-1H-indole-5-carbonitrile] | 828 |
| Cn1c(C(=O)N2C[C@@H]3[C@H]4CN(C(=O)c5ccc6[nH]nnc6c5)C[C@H]4[C@@H]3C2)cc2ccc(Cl)cc21 [Example 1.034, [(3aR,3bS,6aR,6bS)-5-(1H-benzotriazole-5-carbonyl)-octahydro-cyclobuta[1,2-c;3,4-c′]dipyrrol-2-yl]-(6-chloro-1-methyl-1H-indol-2-yl)-methanone] | 489 |
| O=C(c1ccc2[nH]nnc2c1)N1C[C@@H]2[C@H](C1)[C@H]1CN(C(=O)c3cc(OCC4CC4)c4ccccc4n3)C[C@@H]21 [Example 1.071, [(3aR,3bS,6aR,6bS)-5-(1H-benzotriazole-5-carbonyl)-octahydro-cyclobuta[1,2-c;3,4-c′]dipyrrol-2-yl]-(4-cyclopropylmethoxy-quinolin-2-yl)-methanone] | 3.5 |
| CCOc1cc(C(=O)N2C[C@@H]3[C@H]4CN(C(=O)c5ccc6[nH]nnc6c5)C[C@H]4[C@@H]3C2)nc2c1CCCC2 [Example 1.088] | 41.3 |
| O=C(c1ccc2ccc(-c3ccccc3)cc2c1)N1C[C@@H]2[C@H](C1)[C@H]1CN(C(=O)c3ccc4[nH]nnc4c3)C[C@@H]21 [Example 1.050, [(3aS,3bS,6aR,6bR)-5-(1H-benzotriazole-5-carbonyl)-octahydro-cyclobuta[1,2-c;3,4-c′]dipyrrol-2-yl]-(7-phenyl-naphthalen-2-yl)-methanone] | 8 |
| COc1ccc2cc(C(=O)N3C[C@@H]4[C@H](C3)[C@H]3CN(C(=O)c5ccc6[nH]nnc6c5)C[C@@H]43)ccc2c1 [Example 1.005, [(3aS,3bS,6aR,6bR)-5-(1H-benzotriazole-5-carbonyl)-octahydro-cyclobuta[1,2-c;3,4-c′]dipyrrol-2-yl]-(6-methoxy-naphthalen-2-yl)-methanone] | 120 |
| O=C(c1ccc2ccccc2c1)N1C[C@@H]2[C@H](C1)[C@H]1CN(C(=O)c3ccc4[nH]nnc4c3)C[C@@H]21 [Example 1.012, [(3aS,3bS,6aR,6bR)-5-(1H-benzotriazole-5-carbonyl)-octahydro-cyclobuta[1,2-c;3,4-c′]dipyrrol-2-yl]-naphthalen-2-yl-methanone] | 86 |
